From patent publication US9227971B2, “Pyrazolo[1,5-a]pyrimidine compounds as mTOR inhibitors” (Merck Sharp & Dohme Corp., priority 2010, dated 2016)
Where two headings read alike, the source gives them in different places.

How the values were obtained:
[1] = system: phosphorylated 4E-BP1 Thr37/46 (p4E-BP1 Thr37/46), mTORC1 activity, PC3 cells; assay: mTOR target engagement assay, immunofluorescent cell-based, p4E-BP1 Thr37/46 readout (mTORC1 activity); settings: Homo sapiens, read-out: p4E-BP1 Thr37/46 IC50
In short: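 PTEN-mutant PC3 prostate cells were treated with serially diluted compound in 5% FBS F12 medium (0.25% DMSO) for ninety minutes at 37° C, glyoxal-fixed, then immunostained overnight at 4° C for p4E-BP1 Thr37/46 with an Alexa Fluor 488 secondary. IC50 came from four-parameter fits of fluorescence, DMSO-only wells defining 100%.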

[2] = system: phosphorylated AKT Ser473 (pAKT S473), mTORC2 activity, PC3 cells; assay: mTOR target engagement assay, immunofluorescent cell-based, pAKT S473 readout (mTORC2 activity); settings: Homo sapiens
In short: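 After blocking, cells were stained overnight at 4 °C with anti-pAKT S473 antibody, then a fluorescent secondary; inhibition was read as reduced fluorescence intensity.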

[3] = PC-3, PC3 cells, compound treatment ninety minutes at 37° C.

Structure (SMILES)	IC50 ([1]; PC-3, Table 3-1, PC3 cells) [nM]	IC50 ([2]; PC-3, Table 3-1, PC3 cells) [nM]	IC50 [1, 3] [nM]	IC50 [2, 3] [nM]	other results
C=C(C)c1c([C@@H]2C[C@H]3CC[C@@H](C2)N3C(=O)CO)nc2c(-c3ccc(-c4ncc[nH]4)nc3)cnn2c1N [Compound 6.7, 1-((1R,3s,5S)-3-(3-(6-(1H-imidazol-2-yl)pyridin-3-yl)-7-amino-6-(prop-1-en-2-yl)pyrazolo[1,5-a]pyrimidin-5-yl)-8-azabicyclo[3.2.1]octan-8-yl)-2-hydroxyethanone]					IC50 ([1]; PC-3, Table 6-1, PC3 cells): 1 to 100 nM; IC50 ([2]; PC-3, Table 6-1, PC3 cells): 1 to 100 nM
CS(=O)(=O)c1c([C@@H]2C[C@H]3CC[C@@H](C2)N3C(N)=O)nc2c(-c3ccc(-c4ccc(F)cc4)nc3)cnn2c1N [Compound 3.126, (1R,3s,5S)-3-(7-amino-3-(6-(4-fluorophenyl)pyridin-3-yl)-6-(methylsulfonyl)pyrazolo[1,5-a]pyrimidin-5-yl)-8-azabicyclo[3.2.1]octane-8-carboxamide]	1 to 100	1 to 100			
CC(=O)c1c([C@@H]2C[C@H]3CC[C@@H](C2)N3C(=O)c2nnc[nH]2)nc2c(-c3ccc(C(N)(C(F)(F)F)C(F)(F)F)nc3)cnn2c1N [Compound 7.80, 1-(5-((1R,3s,5S)-8-(4H-1,2,4-triazole-3-carbonyl)-8-azabicyclo[3.2.1]octan-3-yl)-7-amino-3-(6-(2-amino-1,1,1,3,3,3-hexafluoropropan-2-yl)pyridin-3-yl)pyrazolo[1,5-a]pyrimidin-6-yl)ethanone]					IC50 ([1]; PC-3, PC3 cells): 100 to 1000 nM; IC50 ([2]; PC-3, PC3 cells): 1000 to 10000 nM
CCCC(O)c1ccc(-c2cnn3c(N)c(S(C)(=O)=O)c([C@@H]4C[C@H]5CC[C@@H](C4)N5C(=O)c4nnc[nH]4)nc23)cn1 (stereo partly drawn) [Compound 7.25, ((1R,3s,5S)-3-(7-amino-3-(6-(1-hydroxybutyl)pyridin-3-yl)-6-(methylsulfonyl)pyrazolo[1,5-a]pyrimidin-5-yl)-8-azabicyclo[3.2.1]octan-8-yl)(4H-1,2,4-triazol-3-yl)methanone]					IC50 ([1]; PC-3, Table 7-2, PC3 cells): 1000 to 10000 nM; IC50 ([2]; PC-3, Table 7-2, PC3 cells): 1000 to 10000 nM
CS(=O)(=O)c1c([C@@H]2C[C@H]3CC[C@@H](C2)N3C(=O)c2nnc[nH]2)nc2c(-c3ccc(-c4ccccn4)cc3)cnn2c1N [Compound 3.31, ((1R,3s,5S)-3-(7-amino-6-(methylsulfonyl)-3-(4-(pyridin-2-yl)phenyl)pyrazolo[1,5-a]pyrimidin-5-yl)-8-azabicyclo[3.2.1]octan-8-yl)(4H-1,2,4-triazol-3-yl)methanone]	100 to 1000	1 to 100			
CC(=O)c1c([C@@H]2C[C@H]3CC[C@@H](C2)N3C(=O)c2nnc[nH]2)nc2c(-c3cnc(-c4ccn(C)n4)c(C)c3)cnn2c1N [Compound 1.1.114, 1-(5-((1R,3s,5S)-8-(4H-1,2,4-triazole-3-carbonyl)-8-azabicyclo[3.2.1]octan-3-yl)-7-amino-3-(5-methyl-6-(1-methyl-1H-pyrazol-3-yl)pyridin-3-yl)pyrazolo[1,5-a]pyrimidin-6-yl)ethanone]			1000 to 10000	1000 to 10000	
CC(=O)c1c([C@@H]2C[C@H]3CC[C@@H](C2)N3C(=O)c2nnc[nH]2)nc2c(-c3ccc(-c4ccccc4F)nc3)cnn2c1N [Compound 1.1.145, 1-(5-((1R,3s,5S)-8-(4H-1,2,4-triazole-3-carbonyl)-8-azabicyclo[3.2.1]octan-3-yl)-7-amino-3-(6-(2-fluorophenyl)pyridin-3-yl)pyrazolo[1,5-a]pyrimidin-6-yl)ethanone]			1 to 100	1 to 100	
CC(=O)c1c([C@@H]2C[C@H]3CC[C@@H](C2)N3C(=O)CO)nc2c(-c3ccc(-n4ccc(C)n4)nc3)cnn2c1N [Compound 1.1.133, 1-((1R,3s,5S)-3-(6-acetyl-7-amino-3-(6-(3-methyl-1H-pyrazol-1-yl)pyridin-3-yl)pyrazolo[1,5-a]pyrimidin-5-yl)-8-azabicyclo[3.2.1]octan-8-yl)-2-hydroxyethanone]			1000 to 10000	100 to 1000	
CS(=O)(=O)c1c([C@@H]2C[C@H]3CC[C@@H](C2)N3C(=O)c2cn[nH]c2O)nc2c(-c3ccc(-c4ccccc4)nc3)cnn2c1N [Compound 3.94, ((1R,3s,5S)-3-(7-amino-6-(methylsulfonyl)-3-(6-phenylpyridin-3-yl)pyrazolo[1,5-a]pyrimidin-5-yl)-8-azabicyclo[3.2.1]octan-8-yl)(5-hydroxy-1H-pyrazol-4-yl)methanone]	100 to 1000	100 to 1000			
COc1c(F)cc(-c2ccc(-c3cnn4c(N)c(C(C)=O)c([C@@H]5C[C@H]6CC[C@@H](C5)N6C(=O)c5nnc[nH]5)nc34)cn2)cc1F [Compound 1.1.64, 1-(5-((1R,3s,5S)-8-(4H-1,2,4-triazole-3-carbonyl)-8-azabicyclo[3.2.1]octan-3-yl)-7-amino-3-(6-(3,5-difluoro-4-methoxyphenyl)pyridin-3-yl)pyrazolo[1,5-a]pyrimidin-6-yl)ethanone]			100 to 1000	100 to 1000	
CC(=O)c1c([C@@H]2C[C@H]3CC[C@@H](C2)N3C(=O)c2nnc[nH]2)nc2c(-c3cnc(-c4ccccc4)nc3)cnn2c1N [Compound 1.1.179, 1-(5-((1R,3s,5S)-8-(4H-1,2,4-triazole-3-carbonyl)-8-azabicyclo[3.2.1]octan-3-yl)-7-amino-3-(2-phenylpyrimidin-5-yl)pyrazolo[1,5-a]pyrimidin-6-yl)ethanone]			1 to 100	1 to 100	
Cn1cc(-c2cnn3c(N)c(S(C)(=O)=O)c([C@@H]4C[C@H]5CC[C@@H](C4)N5C(=O)CO)nc23)cn1 [Compound 3.112, 1-((1R,3s,5S)-3-(7-amino-3-(1-methyl-1H-pyrazol-4-yl)-6-(methylsulfonyl)pyrazolo[1,5-a]pyrimidin-5-yl)-8-azabicyclo[3.2.1]octan-8-yl)-2-hydroxyethanone]	1000 to 10000	> 10000			
CC(=O)c1c([C@@H]2C[C@H]3CC[C@@H](C2)N3C(=O)c2n[nH]c(N)n2)nc2c(-c3ccc(-c4ccccc4)nc3)cnn2c1N [Compound 1.1.140, 1-(7-amino-5-((1R,3s,5S)-8-(5-amino-1H-1,2,4-triazole-3-carbonyl)-8-azabicyclo[3.2.1]octan-3-yl)-3-(6-phenylpyridin-3-yl)pyrazolo[1,5-a]pyrimidin-6-yl)ethanone]			1 to 100	1 to 100	
CS(=O)(=O)c1c([C@@H]2C[C@H]3CC[C@@H](C2)N3C(=O)c2nnc[nH]2)nc2c(-c3ccc(-c4ccc(C(F)(F)F)cc4F)nc3)cnn2c1N [Compound 3.110, ((1R,3s,5S)-3-(7-amino-3-(6-(2-fluoro-4-(trifluoromethyl)phenyl)pyridin-3-yl)-6-(methylsulfonyl)pyrazolo[1,5-a]pyrimidin-5-yl)-8-azabicyclo[3.2.1]octan-8-yl)(4H-1,2,4-triazol-3-yl)methanone]	1000 to 10000	100 to 1000			
Cc1nnc(C(=O)N2[C@@H]3CC[C@H]2C[C@H](c2nc4c(-c5ccc(-c6ccccc6)nc5)cnn4c(N)c2C2CC2)C3)[nH]1 [Compound 4.2, ((1R,3a,5S)-3-(7-amino-6-cyclopropyl-3-(6-phenylpyridin-3-yl)pyrazolo[1,5-a]pyrimidin-5-yl)-8-azabicyclo[3.2.1]octan-8-yl)(5-methyl-4H-1,2,4-triazol-3-yl)methanone]			1 to 100	1 to 100	
CC(=O)c1c([C@@H]2C[C@H]3CC[C@@H](C2)N3C(=O)c2nnc[nH]2)nc2c(-c3ccc(-c4ccncc4)nc3)cnn2c1N [Compound 1.1.76, 1-(3-(2,4′-bipyridin-5-yl)-5-((1R,3s,5S)-8-(4H-1,2,4-triazole-3-carbonyl)-8-azabicyclo[3.2.1]octan-3-yl)-7-aminopyrazolo[1,5-a]pyrimidin-6-yl)ethanone]			100 to 1000	100 to 1000	
CNC(=O)N1[C@@H]2CC[C@H]1C[C@H](c1nc3c(-c4ccc(-c5ncc[nH]5)nc4)cnn3c(N)c1C(C)=O)C2 [Compound 6.24, (1R,3s,5S)-3-(3-(6-(1H-imidazol-2-yl)pyridin-3-yl)-6-acetyl-7-aminopyrazolo[1,5-a]pyrimidin-5-yl)-N-methyl-8-azabicyclo[3.2.1]octane-8-carboxamide]					IC50 ([1]; PC-3, Table 6-1, PC3 cells): 1 to 100 nM; IC50 ([2]; PC-3, Table 6-1, PC3 cells): 1 to 100 nM
COCCOc1ccc(-c2ccc(-c3cnn4c(N)c(C(C)=O)c([C@@H]5C[C@H]6CC[C@@H](C5)N6C(=O)c5nnc[nH]5)nc34)cn2)cc1 [Compound 1.1.69, 1-(5-((1R,3s,5S)-8-(4H-1,2,4-triazole-3-carbonyl)-8-azabicyclo[3.2.1]octan-3-yl)-7-amino-3-(6-(4-(2-methoxyethoxy)phenyl)pyridin-3-yl)pyrazolo[1,5-a]pyrimidin-6-yl)ethanone]			100 to 1000	100 to 1000	
COc1ccc(-c2ncc(-c3cnn4c(N)c(S(C)(=O)=O)c([C@@H]5C[C@H]6CC[C@@H](C5)N6C(=O)c5nnc[nH]5)nc34)cn2)c(F)c1F [Compound 3.148, ((1R,3s,5S)-3-(7-amino-3-(2-(2,3-difluoro-4-methoxyphenyl)pyrimidin-5-yl)-6-(methylsulfonyl)pyrazolo[1,5-a]pyrimidin-5-yl)-8-azabicyclo[3.2.1]octan-8-yl)(4H-1,2,4-triazol-3-yl)methanone]	100 to 1000	100 to 1000			
